Results reported in US10456376B2, “Use of carbamate compound in order to preventatively treat headaches” (SK BIOPHARMACEUTICALS CO., LTD., priority 2016, dated 2019).

System: cortical spreading depression (CSD) in rats
Experiment: KCl-induced cortical spreading depression (CSD) animal model of migraine; cerebral blood flow and DC potential measurement
Type: in vivo, Wistar rats
Settings: for number of DC-potential events: KCl-induced CSD (FIG. 3)
Method: All animal experiments were conducted in accordance with the National Institutes of Health (NIH) guidelines for the protection and use of laboratory animals and were approved by the State National Animal Experiment Board of Finland. A total of 48 adult male Wistar rats weighing 250 to 350 g were purchased from Charles River (Germany) and used in this experiment. The animals were raised at ambient temperature (22±1° C.) under an environment in which food and water could be consumed arbitrarily and lighting was controlled (illuminated from 7 am to 8 pm). The animals were divided into the following four groups: • Twelve rats as a negative control group which were intraperitoneally administered 30% PEG400 (5 ml/kg) only, the vehicle of administration, once a day for three weeks • Twelve rats which were intraperitoneally administered the test compound at a dose of 10 mg/kg once a day for three weeks • Twelve rats which were intraperitoneally administered the test compound at a dose of 30 mg/kg once a day for three weeks • Twelve rats as a positive control which were intraperitoneally administered Topiramate at a dose of 80 mg/kg once a day for three weeks
On the last day of the three weeks of administration of the compound and the vehicle (30% PEG 400), the rats were anesthetized with 5% isoflurane (70% N2O and 30% O2 included, dose rate of 300 ml/min) and then were fixed to a stereotactic frame to perform the following surgery. During surgery, the concentration of anesthetic was reduced to 1 to 1.5%, and the rectal temperature was maintained at 37.0±1.0° C. using the homeothermic blanket system.
The skin of the rat head was incised and tilted to both sides, and the right hemisphere of the open skull was drilled using a drill to make three holes, the positions of which are as follows and are indicated by “mm” distance from the bregma; (1) in the occipital cortex, 4.5 at the rear and 2.0 at the lateral; (2) in the parietal cortex, 0.5 at the rear and 2.0 at the lateral; (3) in the frontal cortex, 2 at the front and 2 at the lateral. A laser-Doppler flow probe (Oxyflow, Oxford Optronics, UK) for monitoring the cerebral blood flow (CBF) and an invasive Ag/AgCl electrode for measuring the direct current (DC) potential change were placed on the uninjured dura of the holes drilled in the parietal and frontal cortex and within the cortex, respectively.
The laser-Doppler flow probes were placed in areas with no large pial and dural blood vessels to minimize the interference of the large vessels to the signal. For the measurement of the DC potential difference, a reference electrode was fixed to the neck. The dura on the occipital cortex was carefully removed and care was taken to minimize bleeding. After surgery, the cortical area was restored by washing with saline for 15 minutes. Sphere-shaped (2 mm diameter) cotton wool was wetted with 1 M KCl solution and placed on the pia, and 5 μl of KCl solution was added thereto every 15 minutes to prevent drying. The occurrence of KCl-induced cortical spreading depression (CSD) was measured for 2 hours.
Cerebral blood flow (CBF) and DC potential were continuously monitored starting 5 minutes before KCl treatment. The last drug administration took place 30 minutes before the KCl solution treatment. The parameters analyzed were (1) the number of events of DC potential, the duration of the event, the magnitude of amplitude, and (2) the number of events of cerebral blood flow change and the size of the magnitude of change. […] Statistical analysis was performed using unpaired t-test on StatsDirect statistical software.

| SMILES | number of events of increased cerebral blood flow (CBF) (80 mg/kg i.p. once a day for three weeks, positive control, KCl-induced CSD (FIG. 1)) | number of DC-potential events (80 mg/kg i.p. once a day for three weeks, positive control) | number of DC-potential events (30 mg/kg i.p. once a day for three weeks, compared to vehicle treated group) | number of events of increased cerebral blood flow (CBF) (30 mg/kg i.p. once a day for three weeks, compared to vehicle treated group, KCl-induced CSD measured for 2 hours (FIG. 1)) | degree of cerebral blood flow increase (i.p. once a day for three weeks, compared to vehicle, KCl-induced CSD (FIG. 2)) | magnitude of amplitude of the DC-potential event (i.p. once a day for three weeks, compared to vehicle, KCl-induced CSD (FIG. 4)) | duration of the DC-potential event (i.p. once a day for three weeks, compared to vehicle, KCl-induced CSD (FIG. 5)) |
| --- | --- | --- | --- | --- | --- | --- | --- |
| CC1(C)O[C@@H]2[C@@H](CO[C@@]3(COS(N)(=O)=O)OC(C)(C)O[C@@H]23)O1 [Topiramate, reference compound] | reduction effect | effect shown | – | – | – | – | – |
| NC(=O)O[C@@H](Cn1ncnn1)c1ccccc1Cl [test compound] | – | – | significantly reduced | significantly reduced | no significant effect | no significant effect | no significant effect |
